PubChem BioAssay AID256 (DTP/NCI, 2004)
Values joined by “and” are separate entries in the source; they are usually repeats but may differ in a detail not shown here. Equal values may be shown once. Inconclusive results and toxic doses are left out.

Test system: CD2F1 mice, L1210 leukemia ip, survival T/C
Experiment: NCI In Vivo Anticancer Drug Screen. Data for tumor model L1210 Leukemia (intraperitoneal) in CD2F1 (CDF1) mice
Settings: higher = longer survival
In short: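 Compound-dosed mice with transplantable tumor versus matched vehicle controls; endpoint ratio T/C reported.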

[1] = endpoint: mean survival time, dose: 100.0 mg/kg/injection, schedule: Q01DX009 (ip), vehicle: saline
[2] = endpoint: mean survival time, dose: 100.0 mg/kg/injection, schedule: Q04DX003 (ip), vehicle: Klucel (hydroxypropylcellulose) (HPC)
[3] = endpoint: mean survival time, dose: 200.0 mg/kg/injection, schedule: Q04DX003 (ip), vehicle: Klucel (hydroxypropylcellulose) (HPC)
[4] = endpoint: mean survival time, dose: 100.0 mg/kg/injection, schedule: Q04DX003 (ip), vehicle: saline
[5] = endpoint: mean survival time, dose: 200.0 mg/kg/injection, schedule: Q04DX003 (ip), vehicle: saline
[6] = endpoint: mean survival time, dose: 400.0 mg/kg/injection, schedule: Q04DX003 (ip), vehicle: saline
[7] = endpoint: mean survival time, dose: 100.0 mg/kg/injection, schedule: Q01DX001 (ip), vehicle: saline with Tween-80
[8] = endpoint: mean survival time, dose: 200.0 mg/kg/injection, schedule: Q01DX001 (ip), vehicle: saline with Tween-80

With `Nc1nc(Cl)nc2c1ncn2C1OC(CO)C(O)C1O` (stereo not drawn) the T/C (endpoint: mean survival time, dose: 6.25 mg/kg/injection, schedule: Q04DX002 (ip), vehicle: saline) was 94 % of control, the T/C (endpoint: mean survival time, dose: 12.5 mg/kg/injection, schedule: Q04DX002 (ip), vehicle: saline) was 109 % of control and the T/C (endpoint: mean survival time, dose: 25.0 mg/kg/injection, schedule: Q04DX002 (ip), vehicle: saline) was 105 % of control. The T/C [1] was 121 % of control.
For `CCOC(=O)C(CC(=O)O)=C1c2ccccc2-c2ccccc21`, the T/C (endpoint: mean survival time, dose: 25.0 mg/kg/injection, schedule: Q04DX003 (ip), vehicle: Klucel (hydroxypropylcellulose) (HPC)) was 96 % of control, the T/C (endpoint: mean survival time, dose: 50.0 mg/kg/injection, schedule: Q04DX003 (ip), vehicle: Klucel (hydroxypropylcellulose) (HPC)) was 93 % of control and the T/C [2] was 87 % of control. The T/C [3] was 93 % of control.
In the case of `COc1ccc(C(=O)CN(C)S(=O)(=O)c2ccc(C)cc2)cc1`, the T/C (endpoint: mean survival time, dose: 100.0 mg/kg/injection, schedule: Q04DX002 (ip), vehicle: saline with Tween-80) is reported as 97 % of control, the T/C (endpoint: mean survival time, dose: 200.0 mg/kg/injection, schedule: Q04DX002 (ip), vehicle: saline with Tween-80) is reported as 97 % of control and the T/C (endpoint: mean survival time, dose: 400.0 mg/kg/injection, schedule: Q04DX002 (ip), vehicle: saline with Tween-80) is reported as 94 % of control.
`CN(C)c1ccc2c(Nc3ccc(NS(C)(=O)=O)cc3)c3ccc(N(C)C)cc3nc2c1` was tested, and the T/C (endpoint: median survival time, dose: 50.0 mg/kg/injection, schedule: Q01DX009 (ip), vehicle: Klucel (hydroxypropylcellulose) (HPC)) was 170 % of control, the T/C (endpoint: median survival time, dose: 100.0 mg/kg/injection, schedule: Q01DX009 (ip), vehicle: Klucel (hydroxypropylcellulose) (HPC)) was 151 % of control and 193 % of control and the T/C (endpoint: median survival time, dose: 200.0 mg/kg/injection, schedule: Q01DX009 (ip), vehicle: Klucel (hydroxypropylcellulose) (HPC)) was 164 % of control and 174 % of control.
`COc1cccc(C=Nc2ccc(C)cc2)c1O.COc1cccc(C=Nc2ccc(C)cc2)c1O.[Co]` was tested, and the T/C (endpoint: mean survival time, dose: 25.0 mg/kg/injection, schedule: Q04DX003 (ip), vehicle: saline with Tween-80) was 91 % of control, the T/C (endpoint: mean survival time, dose: 50.0 mg/kg/injection, schedule: Q04DX003 (ip), vehicle: saline with Tween-80) was 88 % of control and the T/C (endpoint: mean survival time, dose: 50.0 mg/kg/injection, schedule: Q04DX003 (ip), vehicle: saline) was 102 % of control. The T/C (endpoint: mean survival time, dose: 100.0 mg/kg/injection, schedule: Q04DX003 (ip), vehicle: saline with Tween-80) was 94 % of control, the T/C [4] was 98 % of control and the T/C (endpoint: mean survival time, dose: 200.0 mg/kg/injection, schedule: Q04DX003 (ip), vehicle: saline with Tween-80) was 94 % of control. The T/C [5] was 96 % of control, the T/C (endpoint: mean survival time, dose: 400.0 mg/kg/injection, schedule: Q04DX003 (ip), vehicle: saline with Tween-80) was 99 % of control and the T/C [6] was 98 % of control.
With `CC(=O)C(C(c1ccccc1)N1CCCc2ccccc21)N1CCOCC1` (stereo not drawn) the T/C [2] was 98 % of control, the T/C [3] was 101 % of control and the T/C (endpoint: mean survival time, dose: 400.0 mg/kg/injection, schedule: Q04DX003 (ip), vehicle: Klucel (hydroxypropylcellulose) (HPC)) was 108 % of control.
In the case of `NCc1cccc([N+](=O)[O-])c1`, the T/C [4] is reported as 106 % of control, the T/C [5] is reported as 109 % of control and the T/C [6] is reported as 98 % of control.
`COc1cc(OC)c(NC(=O)Nc2cccc(C(=O)O)c2)cc1Cl` was tested, and the T/C (endpoint: mean survival time, dose: 50.0 mg/kg/injection, schedule: Q01DX009 (ip), vehicle: saline with Tween-80) was 88 % of control, the T/C (endpoint: mean survival time, dose: 100.0 mg/kg/injection, schedule: Q01DX009 (ip), vehicle: saline with Tween-80) was 88 % of control and the T/C (endpoint: mean survival time, dose: 200.0 mg/kg/injection, schedule: Q01DX009 (ip), vehicle: saline with Tween-80) was 92 % of control.
In the case of `NC(CCC(=O)NCc1ccc(S(=O)(=O)F)cc1)C(=O)O` (stereo not drawn), the T/C (endpoint: mean survival time, dose: 50.0 mg/kg/injection, schedule: Q01DX009 (ip), vehicle: saline) is reported as 92 % of control, the T/C [1] is reported as 96 % of control and the T/C (endpoint: mean survival time, dose: 200.0 mg/kg/injection, schedule: Q01DX009 (ip), vehicle: saline) is reported as 92 % of control.
`Nc1nc(N)c(CCCCc2ccc(NC(=O)c3cccc(S(=O)(=O)F)c3)cc2)c(N)n1` was tested, and the T/C (endpoint: mean survival time, dose: 50.0 mg/kg/injection, schedule: Q01DX001 (ip), vehicle: saline with Tween-80) was 96 % of control, the T/C [7] was 107 % of control and the T/C [8] was 100 % of control.
`c1ccc(C2COCC2c2ccccc2)cc1` (stereo not drawn) was tested, and the T/C [7] was 86 % of control, the T/C [8] was 92 % of control and the T/C (endpoint: mean survival time, dose: 400.0 mg/kg/injection, schedule: Q01DX001 (ip), vehicle: saline with Tween-80) was 93 % of control.
For `CCC[CH2][Sn]1([CH2]CCC)[O]OC2(CCCCC2)[O]1`, the T/C (endpoint: mean survival time, dose: 1.25 mg/kg/injection, schedule: Q01DX009 (ip), vehicle: saline with Tween-80) was 105 % of control, the T/C (endpoint: mean survival time, dose: 2.5 mg/kg/injection, schedule: Q01DX009 (ip), vehicle: saline with Tween-80) was 105 % of control and the T/C (endpoint: mean survival time, dose: 5.0 mg/kg/injection, schedule: Q01DX009 (ip), vehicle: saline with Tween-80) was 105 % of control.
For `CC(=O)CC(C)=O.CC(=O)CC(C)=O.O=N[O-].O=N[O-].[Co]`, the T/C (endpoint: median survival time, dose: 12.5 mg/kg/injection, schedule: Q01DX009 (ip), vehicle: saline with Tween-80) was 106 % of control and 108 % of control and 111 % of control, the T/C (endpoint: median survival time, dose: 25.0 mg/kg/injection, schedule: Q01DX009 (ip), vehicle: saline with Tween-80) was 118 % of control and 111 % of control and 112 % of control and the T/C (endpoint: median survival time, dose: 50.0 mg/kg/injection, schedule: Q01DX009 (ip), vehicle: saline with Tween-80) was 116 % of control and 118 % of control. For the same compound, the T/C (endpoint: median survival time, dose: 100.0 mg/kg/injection, schedule: Q01DX009 (ip), vehicle: saline with Tween-80) was 90 % of control.
